Measured values published in patent publication US20180057505A1, “BICYCLIC HETEROARYL COMPOUNDS USEFUL AS INHIBITORS OF THE PAR-2 SIGNALING PATHWAY” (VERTEX PHARMACEUTICALS INCORPORATED, priority 2015, published 2018).

Columns and labels:
Type in all cases: cell-based
PAR2 (HT-29 cells) [1] = molecular target: T1, PAR2 (HT-29 cells) (Homo sapiens, UniProt P55085); test: Ca FLIPR TETRA assay, ANTAGONIST mode, activator 8 μM SLIGKV; details: HT-29 cells, activator 8 μM SLIGKV; maximal antagonist concentration per Method (A: 0.1, 1 or 2 μM; B: 50 μM)
T1 construct: host or cells: HT-29
T1 sequence (P55085 26-397): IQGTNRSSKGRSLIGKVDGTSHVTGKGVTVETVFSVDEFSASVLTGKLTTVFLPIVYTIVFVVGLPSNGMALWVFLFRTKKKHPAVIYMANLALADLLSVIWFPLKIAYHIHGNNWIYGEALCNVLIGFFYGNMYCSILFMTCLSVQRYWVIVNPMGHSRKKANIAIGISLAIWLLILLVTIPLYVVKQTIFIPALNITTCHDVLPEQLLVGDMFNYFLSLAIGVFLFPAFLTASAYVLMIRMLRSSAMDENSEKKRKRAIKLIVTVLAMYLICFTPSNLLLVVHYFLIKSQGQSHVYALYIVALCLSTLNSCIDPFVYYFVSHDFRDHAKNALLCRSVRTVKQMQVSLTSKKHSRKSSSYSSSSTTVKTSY
Outline: (§1)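 Fluorescent Ca2+ dye (calcium 5) loading of overnight-plated HT-29 cells preceded compound addition and a 30 min room-temperature incubation. Responses to the specified activator concentration were then read by FLIPR Tetra in the same plate.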

PAR2 (HT-29 cells) [2] = molecular target: T1, PAR2 (HT-29 cells); test: Ca FLIPR TETRA assay, ANTAGONIST mode, activator 3.1 U/mL trypsin; details: HT-29 cells, activator 3.1 U/mL trypsin; maximal antagonist concentration per Method (A: 0.1, 1 or 2 μM; B: 50 μM)
Outline: as §1

[3] = system: Thrombin-stimulated Ca2+ response in HT-29 cells; test: Ca FLIPR TETRA assay, ANTAGONIST mode, activator 1 U/mL Thrombin; details: Homo sapiens; HT-29 cells, activator 1 U/mL Thrombin
Outline: as §1

[4] = system: UTP-stimulated Ca2+ response in HT-29 cells; test: Ca FLIPR TETRA assay, ANTAGONIST mode, activator 0.6 μM UTP; details: Homo sapiens; HT-29 cells, activator 0.6 μM UTP
Outline: as §1

IC50 (PAR2 (HT-29 cells) [1]) [nM]	IC50 (PAR2 (HT-29 cells) [2]) [nM]	IC50 [3] [nM]	IC50 [4] [nM]	SMILES
2100	2600	> 35000	30000	CC(C)c1cc(-c2ccc(F)cc2)nc2sc(C(=O)N3CCN(C(=O)[C@H](O)CC(C)(C)C)[C@@H](C)C3)nc12 [Example I-130]
66	68	19000	12000	CC(C)c1cc(-c2ccc(F)cc2)nc2sc(C(=O)N3CCNC(=O)C3(C)C)nc12 [Example I-131]
6.4	9	> 50000	> 50000	CC(C)c1cc(-c2ccc(F)cc2)nc2sc(C(=O)N3CCN(C(=O)[C@H](O)CC(C)(C)C)CC3(C)C)nc12 [Example I-132]
5900	7500	20000	20000	CC(C)c1cc(-c2ccc(F)cc2)nc2oc(C(=O)N3CCNC(=O)C3(C)C)nc12 [Example I-133]
0.6	0.9	> 1000	> 1000	CC(C)c1cc(-c2ccc(F)cc2)nc2cc(C(=O)N3CCN(C(=O)[C@H]4C[C@](O)(C(F)(F)F)C4)CC3(C)C)oc12 [Example I-134]
24	42	> 1000	> 1000	CC(C)c1cc(-c2ccc(F)cc2)nc2cc(C(=O)N3CCN(C(=O)[C@H]4C[C@@H](O)C4)CC3(C)C)oc12 [Example I-135]
6.4	7.4	> 1000	> 1000	CC(C)c1cc(-c2ccc(F)cc2)nc2cc(C(=O)N3CCN(C(=O)[C@H]4C[C@@](C)(O)C4)CC3(C)C)oc12 [Example I-136]
7.8	9.4	500	830	CC(C)c1cc(-c2ccc(F)cc2)nc2cc(C(=O)N3CCN(C(=O)[C@H]4C[C@@](O)(C(F)(F)F)C4)CC3(C)C)oc12 [Example I-137]
2	2.2	> 1000	> 1000	Cc1cc(C(=O)N2CCN(C(=O)c3cc4nc(-c5ccc(F)cc5)cc(C(C)C)c4o3)C(C)(C)C2)on1 [Example I-138]
24	33	> 1000	> 1000	CC(C)c1cc(-c2ccc(F)cc2)nc2cc(C(=O)N3CCN(C(=O)c4ccnn4C)CC3(C)C)oc12 [Example I-139]
4.8	3.5	> 1000	> 1000	Cc1cnoc1C(=O)N1CCN(C(=O)c2cc3nc(-c4ccc(F)cc4)cc(C(C)C)c3o2)C(C)(C)C1 [Example I-140]
3.2	4.2	> 1000	> 1000	CC(C)c1cc(-c2ccc(F)cc2)nc2cc(C(=O)N3CCN(C(=O)c4ccn(C)n4)CC3(C)C)oc12 [Example I-141]
7.2	13	> 1000	> 1000	CC(C)c1cc(-c2ccc(F)cc2)nc2cc(C(=O)N3CCN(C(=O)c4nnc[nH]4)CC3(C)C)oc12 [Example I-142]
2.1	2.2	> 1000	> 1000	C=C(C)c1cc(-c2ccc(F)cc2)nc2cc(C(=O)N3CCN(C(=O)[C@H]4C[C@](O)(C(F)(F)F)C4)CC3(C)C)oc12 [Example I-143]
24	31	> 1000	> 1000	CC(C)c1cc(-c2ccc(F)cc2)nc2cc(C(=O)N3CCN(S(=O)(=O)c4cn(C)cn4)CC3(C)C)oc12 [Example I-144]
40	42	> 1000	> 1000	Cc1ncc(S(=O)(=O)N2CCN(C(=O)c3cc4nc(-c5ccc(F)cc5)cc(C(C)C)c4o3)C(C)(C)C2)n1C [Example I-145]
13	21	> 1000	> 1000	Cc1nn(C)cc1S(=O)(=O)N1CCN(C(=O)c2cc3nc(-c4ccc(F)cc4)cc(C(C)C)c3o2)C(C)(C)C1 [Example I-146]
